# According to publication PMC9487510, “A Novel Oral GyrB/ParE Dual Binding Inhibitor Effective against Multidrug-Resistant Neisseria gonorrhoeae and Other High-Threat Pathogens” (Antimicrobial Agents and Chemotherapy, 2022):
# Where two headings read alike, the source gives them in different places.
# System: N. gonorrhoeae clinical isolates
# Experiment: MIC, agar dilution (CLSI)
# Type: cell-based, Neisseria gonorrhoeae
# Conditions: for MIC: read-out: MIC
smiles,measurement,setting,value
"CO/N=C(\C(=O)N[C@@H]1C(=O)N2C(C(=O)O)=C(CSc3nc(=O)c(=O)[nH]n3C)CS[C@H]12)c1csc(N)n1 [Cro, ceftriaxone]",MIC range,96 clinical isolates,<0.002 to 0.125 µg/mL
same,MIC,"Neisseria gonorrhoeae, strain CDC1 (GCREF2012 016)",0.031 µg/mL
same,MIC,"Neisseria gonorrhoeae, strain CDC2 (GCREF2012 045)",0.031 µg/mL
same,MIC,"Neisseria gonorrhoeae, strain CDC3 (GCREF2013 013)",0.031 µg/mL
same,MIC,"Neisseria gonorrhoeae, strain CDC4 (GCREF2013 030)",0.031 µg/mL
same,MIC,"Neisseria gonorrhoeae, strain CDC5 (GCREF2012 001)",0.063 µg/mL
same,MIC,"Neisseria gonorrhoeae, strain CDC6 (GCREF2012 002)",0.063 µg/mL
same,MIC,"Neisseria gonorrhoeae, strain CDC8 (GCREF2012 004)",0.016 µg/mL
same,MIC,"Neisseria gonorrhoeae, strain CDC9 (GCREF2012 005)",0.031 µg/mL
same,MIC,"Neisseria gonorrhoeae, strain CDC10 (GCREF2012 006)",0.031 µg/mL
same,MIC,"Neisseria gonorrhoeae, strain CDC11 (GCREF2012 007)",0.031 µg/mL
same,MIC,"Neisseria gonorrhoeae, strain CDC12 (GCREF2012 008)",0.031 µg/mL
same,MIC,"Neisseria gonorrhoeae, strain CDC13 (GCREF2012 009)",0.031 µg/mL
same,MIC,"Neisseria gonorrhoeae, strain CDC14 (GCREF2012 010)",0.031 µg/mL
same,MIC,"Neisseria gonorrhoeae, strain CDC15 (GCREF2012 011)",0.008 µg/mL
same,MIC,"Neisseria gonorrhoeae, strain CDC16 (GCREF2012 012)",0.063 µg/mL
same,MIC,"Neisseria gonorrhoeae, strain CDC18 (GCREF2012 014)",0.063 µg/mL
same,MIC,"Neisseria gonorrhoeae, strain CDC19 (GCREF2012 015)",0.008 µg/mL
same,MIC,"Neisseria gonorrhoeae, strain CDC20 (GCREF2012 017)",0.063 µg/mL
same,MIC,"Neisseria gonorrhoeae, strain CDC21 (GCREF2012 018)",0.031 µg/mL
same,MIC,"Neisseria gonorrhoeae, strain CDC22 (GCREF2012 019)",0.008 µg/mL
same,MIC,"Neisseria gonorrhoeae, strain CDC23 (GCREF2012 020)",0.031 µg/mL
same,MIC,"Neisseria gonorrhoeae, strain CDC24 (GCREF2012 021)",0.063 µg/mL
same,MIC,"Neisseria gonorrhoeae, strain CDC25 (GCREF2012 022)",0.031 µg/mL
same,MIC,"Neisseria gonorrhoeae, strain CDC26 (GCREF2012 023)",0.031 µg/mL
same,MIC,"Neisseria gonorrhoeae, strain CDC27 (GCREF2012 024)",0.031 µg/mL
same,MIC,"Neisseria gonorrhoeae, strain CDC28 (GCREF2012 025)",0.031 µg/mL
same,MIC,"Neisseria gonorrhoeae, strain CDC29 (GCREF2012 026)",0.016 µg/mL
same,MIC,"Neisseria gonorrhoeae, strain CDC30 (GCREF2012 027)",0.031 µg/mL
same,MIC,"Neisseria gonorrhoeae, strain CDC31 (GCREF2012 028)",0.031 µg/mL
same,MIC,"Neisseria gonorrhoeae, strain CDC32 (GCREF2012 029)",0.063 µg/mL
same,MIC,"Neisseria gonorrhoeae, strain CDC33 (GCREF2012 030)",0.125 µg/mL
same,MIC,"Neisseria gonorrhoeae, strain CDC34 (GCREF2012 031)",0.125 µg/mL
same,MIC,"Neisseria gonorrhoeae, strain CDC35 (GCREF2012 032)",0.125 µg/mL
same,MIC,"Neisseria gonorrhoeae, strain CDC36 (GCREF2012 033)",0.031 µg/mL
same,MIC,"Neisseria gonorrhoeae, strain CDC37 (GCREF2012 034)",0.031 µg/mL
same,MIC,"Neisseria gonorrhoeae, strain CDC38 (GCREF2012 035)",0.031 µg/mL
same,MIC,"Neisseria gonorrhoeae, strain CDC39 (GCREF2012 036)",0.031 µg/mL
same,MIC,"Neisseria gonorrhoeae, strain CDC40 (GCREF2012 037)",0.031 µg/mL
same,MIC,"Neisseria gonorrhoeae, strain CDC41 (GCREF2012 038)",0.031 µg/mL
same,MIC,"Neisseria gonorrhoeae, strain CDC42 (GCREF2012 039)",0.031 µg/mL
same,MIC,"Neisseria gonorrhoeae, strain CDC43 (GCREF2012 040)",0.031 µg/mL
same,MIC,"Neisseria gonorrhoeae, strain CDC45 (GCREF2012 042)",0.125 µg/mL
same,MIC,"Neisseria gonorrhoeae, strain CDC46 (GCREF2012 043)",0.031 µg/mL
same,MIC,"Neisseria gonorrhoeae, strain CDC47 (GCREF2012 044)",0.031 µg/mL
same,MIC,"Neisseria gonorrhoeae, strain CDC48 (GCREF2012 046)",0.031 µg/mL
same,MIC,"Neisseria gonorrhoeae, strain CDC49 (GCREF2012 047)",0.031 µg/mL
same,MIC,"Neisseria gonorrhoeae, strain CDC50 (GCREF2012 048)",0.063 µg/mL
same,MIC,"Neisseria gonorrhoeae, strain CDC51 (GCREF2012 049)",0.008 µg/mL
same,MIC,"Neisseria gonorrhoeae, strain CDC52 (GCREF2012 050)",0.008 µg/mL
same,MIC,"Neisseria gonorrhoeae, strain CDC53 (GCREF2012 051)",0.004 µg/mL
same,MIC,"Neisseria gonorrhoeae, strain CDC54 (GCREF2012 052)",0.004 µg/mL
same,MIC,"Neisseria gonorrhoeae, strain CDC55 (GCREF2013 001)",0.031 µg/mL
same,MIC,"Neisseria gonorrhoeae, strain CDC56 (GCREF2013 002)",0.016 µg/mL
same,MIC,"Neisseria gonorrhoeae, strain CDC57 (GCREF2013 003)",0.004 µg/mL
same,MIC,"Neisseria gonorrhoeae, strain CDC58 (GCREF2013 004)",0.004 µg/mL
same,MIC,"Neisseria gonorrhoeae, strain CDC59 (GCREF2013 044)",0.004 µg/mL
same,MIC,"Neisseria gonorrhoeae, strain CDC60 (GCREF2013 005)",0.031 µg/mL
same,MIC,"Neisseria gonorrhoeae, strain CDC61 (GCREF2013 006)",0.031 µg/mL
same,MIC,"Neisseria gonorrhoeae, strain CDC62 (GCREF2013 007)",0.008 µg/mL
same,MIC,"Neisseria gonorrhoeae, strain CDC64 (GCREF2013 009)",0.008 µg/mL
same,MIC,"Neisseria gonorrhoeae, strain CDC65 (GCREF2013 010)",0.016 µg/mL
same,MIC,"Neisseria gonorrhoeae, strain CDC66 (GCREF2013 011)",0.008 µg/mL
same,MIC,"Neisseria gonorrhoeae, strain CDC67 (GCREF2013 014)",0.008 µg/mL
same,MIC,"Neisseria gonorrhoeae, strain CDC68 (GCREF2013 016)",0.016 µg/mL
same,MIC,"Neisseria gonorrhoeae, strain CDC69 (GCREF2013 017)",0.031 µg/mL
same,MIC,"Neisseria gonorrhoeae, strain CDC70 (GCREF2013 018)",0.004 µg/mL
same,MIC,"Neisseria gonorrhoeae, strain CDC71 (GCREF2013 019)",0.008 µg/mL
same,MIC,"Neisseria gonorrhoeae, strain CDC72 (GCREF2013 020)",0.031 µg/mL
same,MIC,"Neisseria gonorrhoeae, strain CDC73 (GCREF2013 021)",0.008 µg/mL
same,MIC,"Neisseria gonorrhoeae, strain CDC74 (GCREF2013 022)",0.008 µg/mL
same,MIC,"Neisseria gonorrhoeae, strain CDC75 (GCREF2013 023)",0.016 µg/mL
same,MIC,"Neisseria gonorrhoeae, strain CDC76 (GCREF2013 024)",0.016 µg/mL
same,MIC,"Neisseria gonorrhoeae, strain CDC77 (GCREF2013 025)",0.008 µg/mL
same,MIC,"Neisseria gonorrhoeae, strain CDC78 (GCREF2013 026)",0.016 µg/mL
same,MIC,"Neisseria gonorrhoeae, strain CDC79 (GCREF2013 027)",0.016 µg/mL
same,MIC,"Neisseria gonorrhoeae, strain CDC80 (GCREF2013 028)",0.008 µg/mL
same,MIC,"Neisseria gonorrhoeae, strain CDC81 (GCREF2013 029)",0.031 µg/mL
same,MIC,"Neisseria gonorrhoeae, strain CDC82 (GCREF2013 031)",0.031 µg/mL
same,MIC,"Neisseria gonorrhoeae, strain CDC83 (GCREF2013 032)",0.008 µg/mL
same,MIC,"Neisseria gonorrhoeae, strain CDC84 (GCREF2013 033)",0.008 µg/mL
same,MIC,"Neisseria gonorrhoeae, strain CDC86 (GCREF2013 035)",0.008 µg/mL
same,MIC,"Neisseria gonorrhoeae, strain CDC87 (GCREF2013 036)",0.063 µg/mL
same,MIC,"Neisseria gonorrhoeae, strain CDC88 (GCREF2013 037)",0.031 µg/mL
same,MIC,"Neisseria gonorrhoeae, strain CDC89 (GCREF2013 038)",0.008 µg/mL
same,MIC,"Neisseria gonorrhoeae, strain CDC90 (GCREF2013 039)",0.031 µg/mL
same,MIC,"Neisseria gonorrhoeae, strain CDC91 (GCREF2013 040)",0.125 µg/mL
same,MIC,"Neisseria gonorrhoeae, strain CDC92 (GCREF2013 041)",0.031 µg/mL
same,MIC,"Neisseria gonorrhoeae, strain CDC93 (GCREF2013 042)",0.016 µg/mL
same,MIC,"Neisseria gonorrhoeae, strain CDC94 (GCREF2013 043)",0.008 µg/mL
same,MIC,"Neisseria gonorrhoeae, strain CDC95 (GCREF2013 045)",0.031 µg/mL
same,MIC,"Neisseria gonorrhoeae, strain CDC96 (GCREF2013 046)",0.016 µg/mL
same,MIC,"Neisseria gonorrhoeae, strain CDC97 (GCREF2013 047)",0.031 µg/mL
same,MIC,"Neisseria gonorrhoeae, strain CDC98 (GCREF2013 048)",0.008 µg/mL
same,MIC,"Neisseria gonorrhoeae, strain CDC99 (GCREF2013 012)",0.008 µg/mL
same,MIC,"Neisseria gonorrhoeae, strain CDC100 (GCREF2013 015)",0.031 µg/mL
same,MIC50,"Neisseria gonorrhoeae, 96 clinical isolates, read-out: MIC50",0.031 µg/mL
same,MIC90,"Neisseria gonorrhoeae, 96 clinical isolates, read-out: MIC90",0.063 µg/mL
